Source: US20110296540A1, “ASSAY FOR SCREENING ANTIDEPRESSANTS” (priority 2008, published 2011)

Tests used:
newborn granule cells = test: Survival and maturation of newborn granule cells (BrdU/DCX/NeuN triple staining); type: in vivo, mice
Method: Immunohistochemistry and confocal imaging. Mice were anesthetized with ketamine/xylazine (100 and 7 mg/kg, respectively) and transcardially perfused (cold saline, followed by 4% cold paraformaldehyde in PBS). […] Serial sections were cut through the entire hippocampus (Franklin and Paxinos, 1997) using a cryostat and stored in PBS. Immunohistochemistry was performed in the following steps: 2 h incubation in 1:1 formamide/2×SSC at 65° C., 5 min rinse in 2×SSC, 30 min incubation in 2N HCl at 37° C., and 10 min rinse in 0.1M boric acid, pH 8.5, 2 h incubation in 0.1M PBS with 0.3% Triton X-100, and 5% normal donkey serum. Sections were then incubated overnight at 4° C. in primary antibodies for doublecortin (goat; 1:500; Santa Cruz Biotechnology, Santa Cruz, Calif.), bromodeoxyuridine (BrdU; rat; 1:100; Serotec, Oxford, UK), and neuronal-specific nuclear protein (NeuN) (mouse; 1:500; Chemicon, Temecula, Calif.). Biotinylated or fluorescent secondary antibodies were used. All secondary antibodies were purchased from Jackson ImmunoResearch (West Grove, Pa.). DCX staining for Sholl analysis was done as follows: sections were rinsed in PBS, treated with 1% H2O2 in 1:1 PBS and methanol for 15 min to quench endogenous peroxidase activity (and to enhance dendritic staining), incubated in 10% normal donkey serum and 0.3% Triton X-100 for 30 min, and then incubated overnight at 4° C. in primary antibody for doublecortin. After secondary antibody incubation, sections were developed using Vector ABC kit and DAB kit. Bright-field images were taken with a Zeiss (Oberkochen, Germany) Axioplan-2 upright microscope. Stereological procedure was used to quantify labeled cells (Malberg et al., 2000 ? ). All cell counting for triple-stained sections were done using a Zeiss LSM 510 META confocal microscope.
As depicted in FIG. 4A, BrdU (75 mg/kg) was given four times over 8 h on day 0 to achieve maximum labeling of proliferating progenitors over a restricted time window. […] Hippocampal sections were triple stained for BrdU, DCX, and NeuN (FIG. 4B,C). Image acquisition and cell counting were performed using a Zeiss LSM META 510 confocal microscopy.

SvEv129 mice = test: Novelty-suppressed feeding test, sham or x-irradiated animals; type: in vivo; conditions: 28 d of fluoxetine; sham animals
Method: Novelty-suppressed feeding test. […] The floor was covered with ˜2 cm of wooden bedding. Twenty-four hours before behavioral testing, animals were deprived of all food in the home cage. At the time of testing, two food pellets were placed on a piece of round filter paper (12 cm diameter) positioned in the center of the box. The test began immediately after the animal was placed in a corner of the box. The latency to approach the pellet and begin feeding was recorded (maximum time, 5 min). Immediately afterward, the animal was transferred back to its home cage and the amount of food consumed in 5 min was measured. Each mouse was weighed before food deprivation and before testing to assess the percentage of body weight lost.
In the NSF paradigm, conflicting motivations are produced by presenting a food-deprived animal with a reward (food) within the context of a novel, aversive environment. The NSF test is among the few behavioral paradigms that can differentiate chronic versus subchronic responses to antidepressant treatments, using the latency to begin eating as an index of antidepressant/anxiety-like behavior.

C57BL/6Ntac mice [1] = test: Forced Swim Test, chronic corticosterone model; type: in vivo; conditions: for immobility duration (FST): mean±SEM
[2] = tested on: doublecortin positive cells; test: Doublecortin (DCX) labeling for maturation index study, corticosterone model; type: in vivo, mice
Source text: The secondary antibody was biotinylated donkey anti-goat (1:500) (Jackson ImmunoResearch, West Grove, Pa.) in PBS for 2 hr at room temperature. Sections were developed using avidin-biotin complex (Vector, USA) and DAB kit.

1A-High and 1A-Low mice = test: Novelty-suppressed feeding paradigm in 1A-High and 1A-Low mice; type: in vivo; conditions: twenty-five days, 18 mg/kg/day p.o.
Source text: The NSF paradigm is a test of hyponeophagia that measures the latency of a mouse to consume food placed in the middle of a brightly lit, aversive arena.

C57BL/6Ntac mice [3] = test: Changes in coat state
[4] = tested on: dentate gyrus of the adult mouse hippocampus; test: BrdU labeling for proliferation and survival study, corticosterone model
Method: After anesthesia with ketamine (100 mg/kg), mice were perfused transcardially (cold saline for 2 min, followed by 4% cold paraformaldehyde at 4° C.). […] For DAB staining, sections were mounted on slides and boiled in citric acid (pH 6.0) for 5 min, rinsed with PBS, and treated with 0.01% trypsin in Tris/CaCl2 for 10 min. Brain sections were incubated for 30 min with 2N HCl and blocked with 5% NGS. Sections were then incubated overnight at room temperature with anti-mouse BrdU (1:100). After washing with PBS, sections were incubated for 1 hr with secondary antibody (1:200 biotinylated goat anti-mouse) followed by amplification with an avidinbiotin complex. The staining was visualized with DAB.

[5] = after 3 weeks of fluoxetine, mean±SEM
[6] = in the presence of corticosterone, compared with controls

SMILES: CNCCC(Oc1ccc(C(F)(F)F)cc1)c1ccccc1 (stereo not shown) [fluoxetine]
- number of BrdU+NeuN+DCX+ cells (newborn granule cells; 3 and 4 weeks of fluoxetine): did not have an effect
- number of cells expressing both BrdU and NeuN (newborn granule cells; 3 and 4 weeks of fluoxetine): also increased
- pool of mature BrdU+NeuN+DCX− cells (newborn granule cells; 3 and 4 weeks of fluoxetine): significantly increased
- total number of BrdU+ cells in the GCL (survival) (newborn granule cells; 3 and 4 weeks of fluoxetine begun 24 h after BrdU): significantly increased
- proportion of BrdU cells that are NeuN+ (newborn granule cells; 5 d of fluoxetine): did not change
- transition of BrdU immature cells from DCX+NeuN− stage to DCX+NeuN+ stage (newborn granule cells; 5 d of fluoxetine): did not change
- proportion of BrdU+NeuN+ cells that ceased to express DCX (newborn granule cells; [5]): 39.24±1.78
- proportion of BrdU+NeuN+ cells that express DCX (newborn granule cells; [5]): 51.64±3.71%
- survival of immature neurons as measured by BrdU (newborn granule cells; subchronic, 5 d): did not change
- latency to feed (NSF) (SvEv129 mice): reduced latency to feed
- immobility duration (FST) (C57BL/6Ntac mice [1]; corticosterone treated animals, alone or with antidepressant): 311.4 s
- immobility duration (FST) (C57BL/6Ntac mice [1]; non-corticosterone treated animals): 302.9 s
- duration of immobility (FST), effect (C57BL/6Ntac mice [1]; two-way ANOVA, corticosterone 7 weeks, antidepressants last 3 weeks): decreased
- number of doublecortin positive cells with tertiary dendrites ([2]; chronic fluoxetine, control animals): increased
- effect of fluoxetine on the number of doublecortin positive cells and their dendritic morphology [2, 6]: even more pronounced
- latency to feed (NSF), response to fluoxetine (1A-High and 1A-Low mice; 1A-High mice): no response
- latency to feed (NSF), response to fluoxetine (1A-High and 1A-Low mice; 1A-Low mice): responded robustly
- deterioration of the coat state induced by chronic corticosterone (C57BL/6Ntac mice [3]; 3 week fluoxetine regimen): reversed
- coat state total score (sum of five body parts) (C57BL/6Ntac mice [3]; chronic corticosterone, without or with 3 week fluoxetine, mean±SEM): 1.80±0.08
- change in cell proliferation induced by corticosterone ([4]; 3 weeks of fluoxetine 18 mg/kg/day): completely reversed
- effect of fluoxetine on survival [4, 6]: even more pronounced
- hippocampal cell proliferation ([4]; non-corticosterone treated C57BL/6Ntac mice, chronic fluoxetine): did not affect
